Consider twelve molecules from ChEMBL document CHEMBL1128966, “Benzylphosphonic acid inhibitors of human prostatic acid phosphatase” (Bioorg Med Chem Lett, 1996).

In general, pIC50 refers to the negative decadic logarithm of the IC50, by convention in mol/L. A lower pIC50 goes with a large IC50.

pIC50: −log10 of the molar value. Some results are limits rather than exact numbers.

In this assay the target is T1, Prostatic acid phosphatase (Homo sapiens, UniProt P15309).
T1 sequence (P15309 whole entry): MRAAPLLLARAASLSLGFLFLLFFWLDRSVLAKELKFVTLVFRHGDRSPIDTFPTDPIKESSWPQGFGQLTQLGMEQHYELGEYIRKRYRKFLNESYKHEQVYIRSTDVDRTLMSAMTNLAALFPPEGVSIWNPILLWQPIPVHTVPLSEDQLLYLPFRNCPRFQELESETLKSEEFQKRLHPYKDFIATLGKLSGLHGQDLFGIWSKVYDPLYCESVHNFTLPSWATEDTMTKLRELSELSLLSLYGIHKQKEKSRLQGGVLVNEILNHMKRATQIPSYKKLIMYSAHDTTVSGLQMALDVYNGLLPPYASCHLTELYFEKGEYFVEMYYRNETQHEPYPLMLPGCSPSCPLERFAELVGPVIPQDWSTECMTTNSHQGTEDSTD
Description: Inhibition of human prostatic acid phosphatase was determined as inhibition of the hydrolysis of tyrosine phosphate.
In turn, `O=P(O)(O)C(c1ccccc1)c1ccc(-c2ccccc2)cc1` (configuration not stated) gave a pIC50 of 4.17.

The molecule `O=P(O)(O)Cc1cccc(C(F)(F)F)c1` gave a pIC50 of 4.06.

`O=P(O)(O)C1c2ccccc2Sc2ccccc21` showed a pIC50 of less than 4.00.

As for `O=P(O)(O)C1c2ccccc2-c2ccccc21`, the negative-log IC50 (pIC50) was less than 3.30.

On to `O=P(O)(O)C(c1ccccc1)c1ccccc1`, for which the pIC50 is 3.85.

For `O=P(O)(O)C(CCc1ccccc1)c1ccccc1` (configuration not stated), the pIC50 is 4.85. Compared with the last molecule, the pIC50 is 1.00 log units higher.

The molecule `O=P(O)(O)C1c2ccccc2Oc2ccccc21` gave a pIC50 of 4.66.

Take `O=P(O)(O)C1c2ccccc2CCc2ccccc21`: the pIC50 is 4.03.

In turn, `O=P(O)(O)C(Cc1ccc(-c2ccccc2)cc1)c1ccccc1` (configuration not stated) had a negative-log IC50 (pIC50) of 4.80.

Turning to `O=P(O)(O)C(c1ccc(-c2ccccc2)cc1)c1ccc(-c2ccccc2)cc1`, the pIC50 was 4.15.

In the case of `O=P(O)(O)C1c2ccccc2C=Cc2ccccc21`, the negative logarithm of the IC50 (pIC50) is less than 4.00.

With `O=P(O)(O)Cc1ccccc1` [BENZYLPHOSPHONIC ACID], the negative logarithm of the IC50 (pIC50) is less than 3.30.
